Data published in ChEMBL document CHEMBL1130256, “1-[1-2-Benzo[b]thiopheneyl)cyclohexyl]piperidine hydrochloride (BTCP) yields two active primary metabolites in vitro: synthesis, identification from rat liver microsome extracts, and affinity for the neuronal dopamine transporter” (J Med Chem, 1997).

Legend:
[1] = Amount of metabolites in the microsomal medium after 90 min incubation of BTCP (500 uM); assay type: ADME, Microsome; conditions: microsomes, 1.5 h
[2] = target: Sodium-dependent dopamine transporter (Rattus norvegicus, UniProt P23977); assay: Inhibitory activity of compound against [3H]BTCP binding to neuronal dopamine transporter of rat striatal membrane
Chain of Sodium-dependent dopamine transporter (P23977 whole entry): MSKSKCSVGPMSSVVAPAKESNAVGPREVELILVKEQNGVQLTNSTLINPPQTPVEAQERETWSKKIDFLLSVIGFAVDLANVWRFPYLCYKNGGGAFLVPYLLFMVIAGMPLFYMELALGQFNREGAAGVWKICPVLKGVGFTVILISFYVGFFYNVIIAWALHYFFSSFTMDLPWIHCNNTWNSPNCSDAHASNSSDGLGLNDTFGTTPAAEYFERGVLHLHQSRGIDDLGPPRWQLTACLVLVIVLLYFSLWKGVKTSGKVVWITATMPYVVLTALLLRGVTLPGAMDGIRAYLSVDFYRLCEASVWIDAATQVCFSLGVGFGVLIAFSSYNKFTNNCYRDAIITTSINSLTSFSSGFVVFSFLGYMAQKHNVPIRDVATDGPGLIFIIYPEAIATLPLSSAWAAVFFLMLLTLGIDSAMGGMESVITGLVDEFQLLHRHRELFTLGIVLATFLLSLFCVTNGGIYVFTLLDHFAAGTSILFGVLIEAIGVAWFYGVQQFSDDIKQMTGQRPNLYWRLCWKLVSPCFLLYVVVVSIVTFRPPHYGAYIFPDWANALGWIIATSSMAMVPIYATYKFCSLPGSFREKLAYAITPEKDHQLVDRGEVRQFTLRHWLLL

Structure (SMILES) | Amount [1] | IC50 [2] [nM]
OC1CCN(C2(c3cc4ccccc4s3)CCCCC2)CC1 | 615 pmol | –
O[C@@H]1CCC[C@@](c2cc3ccccc3s2)(N2CCCCC2)C1 | 4 pM | –
OC1(c2cc3ccccc3s2)CCCCC1 | 141 pmol | –
OC1CCCN(C2(c3cc4ccccc4s3)CCCCC2)C1 (stereo not given) | 147 pmol | 1.75
